Assay [1] deals with cercariae of S. mansoni. Put plainly: Wash-off tests with DEET and Lipodeet in schistosomiasis (mice). It counts as in vivo, Schistosoma mansoni. As to the method:
After bathing, mice were allowed to dry completely. The abdominal skin of these mice was then exposed to 150 cercariae of S. mansoni labeled with ^35S-methionine. Degree of protection conferred by Lipodeet and DEET after the wash off treatment was evaluated by monitoring the entry of parasites into the skin by compressed organ autoradiography techniques as described earlier (Li et. al. Parasitology International 46:55-65, 1997).

The subject of assay [2] is insects. Conditions: normally; cited from earlier work.
Assay [3] has as its system Aedes aegypti. Put plainly: Laboratory evaluation as mosquito repellant on human volunteers. Type of assay: in vivo. Conditions: 10% or 30%; human forearm. The procedure:
However, one of the major uses of DEET is against mosquitoes. Therefore, we wanted to test whether Lipodeet prolongs the mosquito repellency activity of DEET. These experiments were conducted on human volunteers at the Illinois Natural History Survey Center for Economic Entomology, University of Illinois Urbana-Champaign. […] The test solutions were applied to 8.5 cm area (1.76 μl/cm^2) on the forearm of the subjects and the duration of repellency against the mosquitoes was evaluated over a period of 24 hrs. No treatment was applied to the other forearm and this remained as controls. Paper cups (1 pint) screened at one end with a fine mesh and closed at the other end was used as test cages in this study. […] Five minutes after application of the samples were treated as time 0. After the exposure, mosquitoes were removed and the number that were blooded were counted. Values were expressed as follows: [formula]

The test system of assay [4] is cercariae of S. mansoni. Put plainly: Effect of DEET applied to the skin after exposure to S. mansoni infection in mice. It counts as in vivo, Schistosoma mansoni. From the text:
For in vivo animal experiments, male mice of the CD1 strain, weighing approximately 18-20 grams, purchased from Charles River Laboratories (Wilmington, Mass.) were used. The use of animals in these experiments were in compliance with the Animal Welfare Act and other Federal statues and regulations relating to animals as stated in the National Institute of Health publication: Guide for the Care and Use of Laboratory Animals. Mice were infected individually with schistosome cercariae via either tail skin or via shaved abdominal skin. For infection via tail skin, the mouse was restrained in a cage and the tail was dipped for 60 minutes in a tube containing 250-300 ^35S-labeled cercariae suspended in 10 ml of distilled water at room temperature. […]
To determine skin penetration and worm establishment, whole tail skin or the area of abdominal skin that was exposed to the cercariae as described above and the lungs were removed from each mouse on day seven after infection and processed for compressed organ autoradiography techniques as described previously (Li J W et al., Parasitology International 46: 55-65 (1997)). […] Following autoradiographic development, the dark spots (which represent reduced silver foci on film) were counted and percent worm establishment was calculated (number of spots/total number of cercariae used for infection X 100). […]

The test system of assay [5] is Dermacetor variabilis. Put plainly: Tick attachment to rabbit ear, Dermacetor variabilis. Type of assay: in vivo. As to the method:
To determine the effect of DEET on tick attachment and feeding we used two species of ticks Amblyoma americanum and Dermacetor variabilis purchased from University of Oklahoma. Ticks were allowed to feed on the ears of male New Zealand white rabbits purchased from Charles River. For feeding, five ticks were introduced into a 60 μm sieve cell well (Fisher Scientific) which was attached to the ear of the rabbit with nail glue. Ticks were observed every 30 minutes for the first eight hours to assess skin attachment and feeding behavior. Tick attachment was defined as the minimum time required for 3 of the 5 ticks to attach to the ear. […] The observation was continued for 72 hours for both species of ticks. Separate rabbits were used for each species and for each treatment. […] All the ticks in this study were active until attachment.
In this series of experiments, the protective effect(s) of different concentrations of DEET and Lipodeet on the attachment of nymphs and adults of two species of ticks, A. americanum and D. variabilis, to the rabbit ear was evaluated. Experiments were set up wherein different concentrations (20% or 40% of DEET or Lipodeet were applied (0.2 ml of the samples to 10 cm^2 surface area), onto the dorsal side of the ear lobes of a rabbit. After allowing the preparation to dry for 30 min., sieve cups (Fisher Scientific, 1″ inner diameter) were then attached to the ear lobes using nail glue. Ten nymphs or five adult ticks were then introduced into the sieve cups every 24 hrs through a small slit made on the sieve membrane. Attachment of ticks to the skin was monitored every 24 hrs. for up to 72 hrs. after introduction of the ticks.
More than 60% of ticks used in our experiments were dead after contact with Lipodeet. Although a well-aerated sieve cup was used (1″ inner diameter), we initially thought that the tick mortality may be due to possible DEET vapor trapped within the sieve cup. Therefore, we designed experiments where one half of the surface area of skin within the sieve cup was treated with 40% Lipodeet and the other half was left untreated. Five adults ticks of A. americanum were then introduced into the sieve cups every 24 hrs. After 72 hrs., the sieve cups were removed.

Structures are written as SMILES.

For `CCN(CC)C(=O)c1cccc(C)c1` [DEET, N,N-diethyl-m-toluamide], the “protective effect after wash-off” value is given as “significantly (p<0.01) abolished the protective effects of DEET” in assay [1] (10%, five minutes of exposure to water, irrespective of water temperature) and “slightly improved the retention of protective ability of DEET” in assay [1] (concentration increased to 20%). Moreover, the “duration of effect under field condition” value in assay [2] was “eight hours”. In addition, in assay [3], the “duration of mosquito repellent effect” value was “completely lost by six hours”. In assay [4] (40% DEET applied 4 hrs or more after infection), the protection result was “no protection”. Also, the “effectiveness in preventing the infection” value in assay [4] (40% DEET applied within 30 min after exposure to cercariae) stood at 100%. For the same compound, the “initial time with no tick attachment” value in assay [5] (10% DEET on rabbit ear, normal rabbits 4.5 hours) worked out at 7.0 h. Also, in assay [5] (20%, adults), the “time effective in preventing attachment of adult ticks” value was “up to 24 hrs”. The “time effective in preventing attachment of nymphs” value in assay [5] (20%, nymphs) is “up to 48 hrs”. For the same compound, the “effect of raising concentration, adult ticks” value in assay [5] (40% versus 20%, adults) was “slightly more effective at 48 hrs”. Further, in assay [5] (40% versus 20%, nymphs), the “effect of raising concentration, nymphs” value is reported as “no added advantage against nymphs”.

The record behind these values is patent US6447801B1, “Anti-parasitic action of N,N-diethyl-m-toluamide (deet) and formulations that prolong its activity in the skin” (priority 1997, dated 2002).
